This data set can be described thus: Relative solubility of the physical forms. To be noted: monohydrate as impurity in the anhydrous form. Format: physicochemical.

As for `CC(O)C(=O)O.CN1CCN(c2ccc3nc(-c4c(N)c5c(F)cccc5[nH]c4=O)[nH]c3c2)CC1` [monohydrate form, 4-amino-5-fluoro-3-[5-(4-methylpiperazin-1-yl)-1H-benzimidazol-2-yl]quinolin-2(1H)-one lactic acid salt], the “solubility compared with the anhydrous form” value is “less soluble”.
